The test is described as follows: Improvement in feeling of cold evaluated by Visual Analogue Scale (VAS) method after 3 weeks ingestion of tablets. Type of test: in vivo, human. The following applies: 6 tablets of example 1 a day for 3 weeks, normal subjects 45 to 64 years, vs tablet not containing ornithine; FIG. 2. How it is done: Before the ingestion and just after the ingestion, the improvements in feeling of cold of each subject were evaluated using Visual Analogue Scale (VAS) method.
Specifically each end of the segment has a criterion of expression. Referring to FIG. 1, each subject marked somewhere in the line, corresponding to each term of the questionnaires. The distance (mm) from the left end of the line to the marked point was measured and the difference between before and after the test was calculated. The difference by the value before the test was shown in the percentage calculated; and each average value and standard deviation for each group were calculated. […] Further, it was confirmed that there was no difference between two groups before the administration test.
Further the test was carried out under a random assignment and the comparison between the double blind parallel groups was carried out. The test of the statistically significant difference between two groups was an unpaired t-test of both side distributions using the difference between the beginning and just after the test.

Structures are written as SMILES.

These results are taken from US20070093554A1, “AGENT FOR IMPROVING FEELING OF COLD” (priority 2005, published 2007).

As for `NCCC[C@H](N)C(=O)O` [ornithine], the “coldness of hands and feet (improvement, VAS)” value was “improved remarkably”.
